The results in this text go back to patent US4968708A, “Imidazo[2,1-B]benzothiazole compounds and antiulcer compositions containing the same” (priority 1988, dated 1990).

One series concerns aspirin-induced ulcer. Description: Antiulcer activity against aspirin-induced ulcer model. The series is classed as in vivo, Wistar strain male rats. The settings on record: rats, 100 mg/kg p.o. 30 min before aspirin 200 mg/kg p.o.; for Aspirin Induced Ulcer Ulcer Index: stomach excised 7 h after aspirin; for inhibition in vivo at 100 mg/kg: Rattus norvegicus, po, 7 h, read-out: Aspirin Induced Ulcer Inhibition Rate. The protocol: Thirty minutes after administration, aspirin was further orally administered at a dose of 200 mg/kg. Seven hours after administration of aspirin, the stomach was excised under ethereal anesthesia and spotted and linear erosion and a long diameter of any ulcer were microscopically measured to determine an ulcer index and an inhibition rate.
(§1) In the control group, a 5% gum arabic aqueous solution was orally administered at a dose of 5 ml/kg.

Series [1] has as its system water-immersion stress ulcer. Description: Antiulcer activity against water-immersion stress ulcer. The series is classed as in vivo, Wistar strain male rats. The settings on record: rats; for Water-Immersion Stress Ulcer Ulcer Index: 100 mg/kg p.o. 30 min before 6 h water immersion at 22°±1° C.; for inhibition in vivo at 100 mg/kg: Rattus norvegicus, po, 6 h, read-out: Water-Immersion Stress Ulcer Inhibition Rate. The protocol: A suspension of each test compound in a 5% gum arabic aqueous solution was orally given to Wistar strain male rats (at the age of 7 to 8 weeks, weighing 180 to 250 g; 7-9 rats in the group administered with the test compound; 10-16 rats in the control group) fasted for 24 hours at a dose of 100 mg of the test compound/5 ml/kg. Thirty minutes after administration, the animal was immersed in a water bath at 22°±1° C. up to the xiphisternum using a stress cage made by Tokyo University, Faculty of Pharmacology, to apply a stress load for 6 hours. After applying the stress load, the rats had the cervical vertebra dislocated to death. Then, the stomach was excised and, spotted and linear erosion and a long diameter of any ulcer were microscopically measured to determine an ulcer index and an inhibition rate.
as §1

Another series concerns gastric juice secretion. In words: Gastric juice secretion inhibition activity (pyloric ligature). In kind it is in vivo, Wistar strain male rats. The settings on record: rats, 100 mg/kg p.o.; for inhibition in vivo at 100 mg/kg: Rattus norvegicus, po, read-out: Volume Inhibition Rate. As for the experimental part:
A suspension of each test compound in a 5% gum arabic aqueous solution was orally given to Wistar strain male rats (at the age of 7 to 8 weeks, weighing 180 to 250 g; 7-9 rats in the group administered with the test compound; 14-17 rats in the control group) fasted for 24 hours at a dose of 100 mg of the test compound/5 ml/kg. Thirty minutes after administration, pyloric ligature was made under ethereal anesthesia. Four hours thereafter, the stomach was excised under ethereal anesthesia to collect gastric juice. The collected gastric juice was centrifuged (2500 rpm) at 4° C. for 10 minutes. After the supernatant was collected, the amount of the gastric juice and its pH were measured using a pH meter. Furthermore, the amount of free hydrochloric acid and the total acidity were measured with Topfer reagent and phenolphthalein reagent, respectively. Using a part of the gastric juice, pepsin output in the gastric juice was measured using casein as a substrate in a manner similar to the method of Anson et al.
as §1

Another series in a line: Acute toxicity. In kind it is in vivo. The settings on record: mouse, in vivo, po; mice, 7 days observation, Probit method. The protocol: (§2) A suspension of each test compound in a 5% gum arabic aqueous solution was orally given to ddy strain male mice (at the age of 4 to 5 weeks, weighing 25 to 35 g; 2 to 9 mice in one group). For 7 days after the administration, the mice were observed as to if they were dead or alive. Based on the number of deaths, the LD50 value was determined by the Probit method.

The subject of a further series is ddy strain male mice. Description: Acute toxicity. The settings on record: 7 days observation. The series is classed as in vivo. As for the experimental part: as §2
The subject of another series is ethanol-induced ulcer. Description: Antiulcer activity against ethanol-induced ulcer model. The series is classed as in vivo, Wistar strain male rats. As to conditions: rats, 100 mg/kg p.o. 30 min before absolute ethanol 5 ml/kg p.o.; for Ethanol Induced Ulcer Ulcer Index: stomach excised 1 h later; for Ethanol Induced Ulcer Inhibition Rate: vs control group. As for the experimental part:
A suspension of each test compound in a 5% gum arabic aqueous solution was orally given to Wistar strain male rats (at the age of 7 to 8 weeks, weighing 180 to 250 g; 5 rats in the group administered with the test compound; 9 rats in the control group) fasted for […] at a dose of 100 mg of any the test compound/5 ml/kg. Thirty minutes after administration, absolute ethanol was further orally administered at a dose of 5 ml/kg. One hour after administration of absolute ethanol, the stomach was excised under ethereal anesthesia and spotted and linear erosion and a long diameter of ulcer were microscopically measured to determine an ulcer index and an inhibition rate.
as §1

Where [2] appears, read: 100 mg/kg p.o. 30 min before 6 h water immersion, vs control group.
Setting [3] is: pyloric ligature 30 min later, gastric juice collected after 4 h.
Where [4] appears, read: pyloric ligature, 4 h, first part of Table 5.
The mark [5] stands for this setting: 4 h, pyloric ligature, 4 h, vs control group.
Setting [6] is: pyloric ligature, 4 h, second part of Table 5.

On to `Cc1nc2sc3ccccc3n2c1CO.Cl` [Example 2, 2-Methylimidazo[2,1-b]benzothiazole-3-methanol hydrochloride], for which the “Aspirin Induced Ulcer Ulcer Index” value in the series with aspirin-induced ulcer is given as 36.0 ± 5.8 mm^2. Further, the “Aspirin Induced Ulcer Inhibition Rate” value in the series on aspirin-induced ulcer (vs control group) was 46.1%. Besides, the “Water-Immersion Stress Ulcer Ulcer Index” value in series [1] was determined as 4.6 ± 1.1 mm^2. Besides, the “Water-Immersion Stress Ulcer Inhibition Rate” value in series [1] (setting [2]) came to 80.3%. Moreover, the “Volume (gastric juice)” value in the series with gastric juice secretion (setting [3]) was found to be 2.8 ± 0.4 mL. Moreover, in the series on gastric juice secretion (pyloric ligature, 4 h), the Acidity was found to be 77.3 ± 4.5 mEq/l, the “Free HCl” value was 15.8 ± 4.5 mEq/l, the “Pepsin Activity” value was determined as 91.1 ± 8.3 units/ml and the “Pepsin Output” value came out at 58.4 ± 5.2 units/hr. The “pH (gastric juice)” value in the series on gastric juice secretion (setting [4]) came out at 2.43 ± 0.20. Further, in the series on gastric juice secretion (pyloric ligature, 4 h, vs control group), the “Volume Inhibition Rate” value is 53.3%. In addition, in “Acute toxicity”, the LD50 (as a rule, the dose at which mortality reaches 50%) at 168 h is 2130 mg/kg. The “Mortality (No. death/No. treated)” value in the series with ddy strain male mice (1732 mg/kg p.o) is reported as 0/5. The “Mortality (No. death/No. treated)” value in the series on ddy strain male mice (2041 mg/kg p.o) is 2/4. For the same compound, in the series with ddy strain male mice (2236 mg/kg p.o), the “Mortality (No. death/No. treated)” value was 3/5. Moreover, in the series with ddy strain male mice (2449 mg/kg p.o), the “Mortality (No. death/No. treated)” value was 4/5.

Regarding `CCc1nc2sc3ccccc3n2c1CO` [Example 8, 2-Ethylimidazo[2,1-b]benzothiazole-3-methanol], the inhibition in vivo at 100 mg/kg in series [1] (setting [2]) was determined as 50.3%. The “Water-Immersion Stress Ulcer Ulcer Index” value in series [1] came to 8.1 ± 2.2 mm^2. Moreover, in the series with ethanol-induced ulcer, the “Ethanol Induced Ulcer Ulcer Index” value was determined as 4.1 ± 2.2 mm^2 and the “Ethanol Induced Ulcer Inhibition Rate” value is listed as 95.2%.

On to `COCc1c(C)nc2sc3ccccc3n12` [Example 12, 2-Methylimidazo[2,1-b]benzothiazole-3-methanol methyl ether], for which the inhibition in vivo at 100 mg/kg with aspirin-induced ulcer (vs control group) came to 34.5%; in series [1] (setting [2]), 83.3%; in the series on gastric juice secretion (setting [5]) it was 60.3%. Also, in the series with aspirin-induced ulcer, the “Aspirin Induced Ulcer Ulcer Index” value turned out to be 49.9 ± 5.4 mm^2. In addition, in series [1], the “Water-Immersion Stress Ulcer Ulcer Index” value is listed as 2.2 ± 0.4 mm^2. In addition, the “Volume (gastric juice)” value with gastric juice secretion (setting [3]) was determined as 2.5 ± 0.1 mL. The Acidity with gastric juice secretion (pyloric ligature, 4 h) is on record as 66.7 ± 4.7 mEq/l. Besides, the “Free HCl” value with gastric juice secretion (pyloric ligature, 4 h) was 23.2 ± 6.9 mEq/l. In addition, in the series with gastric juice secretion (pyloric ligature, 4 h), the “Pepsin Activity” value was 90.7 ± 4.1 units/ml. Moreover, the “Pepsin Output” value in the series on gastric juice secretion (pyloric ligature, 4 h) was found to be 55.5 units/hr. For the same compound, the “pH (gastric juice)” value in the series with gastric juice secretion (setting [4]) came to 2.28 ± 0.26. In “Acute toxicity”, this compound displayed an LD50 at 168 h of 1770 mg/kg. Further, the “Mortality (No. death/No. treated)” value with ddy strain male mice (1414 mg/kg p.o) is reported as 1/5; in the series with ddy strain male mice (2000 mg/kg p.o), 6/9; in the series with ddy strain male mice (2828 mg/kg p.o), 6/6.

With `Cc1nc2sc3ccccc3n2c1CO` [Example 1, 2-Methylimidazo[2,1-b]benzothiazole-3-methanol], the results for the inhibition in vivo at 100 mg/kg (with aspirin-induced ulcer (vs control group); in series [1] (setting [2]); with gastric juice secretion (setting [5])) were 59.4%, 80% and 52.5%, respectively. Moreover, the “Aspirin Induced Ulcer Ulcer Index” value in the series on aspirin-induced ulcer was 23.3 ± 5.1 mm^2. The “Water-Immersion Stress Ulcer Ulcer Index” value in series [1] is recorded as 4.3 ± 0.9 mm^2. The “Ethanol Induced Ulcer Ulcer Index” value in the series with ethanol-induced ulcer was 4.9 ± 2.6 mm^2. The “Ethanol Induced Ulcer Inhibition Rate” value in the series on ethanol-induced ulcer is on record as 94.3%. Besides, the “Volume (gastric juice)” value in the series on gastric juice secretion (setting [3]) amounted to 2.8 ± 0.4 mL. In the series on gastric juice secretion (pyloric ligature, 4 h), this compound came in with an Acidity of 49.0 ± 5.9 mEq/l. In the series on gastric juice secretion (pyloric ligature, 4 h), the “Free HCl” value is 9.4 ± 3.1 mEq/l. Besides, the “Pepsin Activity” value in the series on gastric juice secretion (pyloric ligature, 4 h) worked out at 90.3 ± 5.9 units/ml. Besides, the “Pepsin Output” value in the series on gastric juice secretion (pyloric ligature, 4 h) was 59.6 ± 6.8 units/hr. For the same compound, in the series with gastric juice secretion (setting [4]), the “pH (gastric juice)” value is reported as 2.94 ± 0.30. In the series “Acute toxicity”, this compound displayed an LD50 at 168 h of 3590 mg/kg. Further, the “Mortality (No. death/No. treated)” value is 0/4 in the series on ddy strain male mice (2000 mg/kg p.o), 1/5 in the series on ddy strain male mice (2828 mg/kg p.o), 3/5 with ddy strain male mice (4000 mg/kg p.o) and 2/2 in the series on ddy strain male mice (4899 mg/kg p.o).

For the compound `Cc1nc2sc3ccccc3n2c1C(C)(C)O` [Example 6, 3(α-Hydroxy-1-methyl)ethyl-2-methylimidazo[2,1-b]benzothiazole], the inhibition in vivo at 100 mg/kg in the series with aspirin-induced ulcer (vs control group) was 22.3%. Besides, the “Aspirin Induced Ulcer Ulcer Index” value with aspirin-induced ulcer is listed as 55.1 ± 8.7 mm^2. The inhibition in vivo at 100 mg/kg in series [1] (setting [2]) was 50.6%. In series [1], the “Water-Immersion Stress Ulcer Ulcer Index” value turned out to be 11.7 ± 4.5 mm^2. For the same compound, in the series on gastric juice secretion (setting [6]), the “Acid Output” value is listed as 169.9 ± 38.0 mcEq/100 g, the “Free HCl” value turned out to be 138.6 ± 37.3 mcEq/100 g, the “Pepsin Output” value turned out to be 23.4 mg tyrosine/100 g and the “Volume (gastric juice)” value worked out at 1.90 ± 0.33 ml/100 g. Further, in the series on gastric juice secretion (setting [6]), the “pH (gastric juice)” value came to 1.24 ± 0.07. For the same compound, the “Mortality (No. death/No. treated)” value with ddy strain male mice (500 mg/kg p.o) was 0/5. Besides, the “Mortality (No. death/No. treated)” value with ddy strain male mice (1000 mg/kg p.o) is on record as 0/5.

For the compound `Cc1nc2sc3cc(F)ccc3n2c1CO` [Example 11, 7-Fluoro-2-methylimidazo[2,1-b]benzothiazole-3-methanol], the inhibition in vivo at 100 mg/kg with aspirin-induced ulcer (vs control group) was 51.8%. Further, the “Aspirin Induced Ulcer Ulcer Index” value in the series on aspirin-induced ulcer stood at 34.2 ± 2.2 mm^2. Moreover, in series [1] (setting [2]), the inhibition in vivo at 100 mg/kg amounted to 54%. In series [1], the “Water-Immersion Stress Ulcer Ulcer Index” value is reported as 10.9 ± 4.4 mm^2. In the series on gastric juice secretion (setting [6]), the “Acid Output” value is on record as 118.8 ± 37.2 mcEq/100 g, the “Free HCl” value is on record as 89.1 ± 35.5 mcEq/100 g, the “Pepsin Output” value was 16.7 ± 2.9 mg tyrosine/100 g and the “Volume (gastric juice)” value is 1.40 ± 0.34 ml/100 g. In the series with gastric juice secretion (setting [6]), the “pH (gastric juice)” value is on record as 1.58 ± 0.15. The “Mortality (No. death/No. treated)” value with ddy strain male mice (500 mg/kg p.o) is given as 0/5. Also, the “Mortality (No. death/No. treated)” value in the series with ddy strain male mice (1000 mg/kg p.o) is on record as 0/5.
